From ChEMBL document CHEMBL1201861, “Genomics of Drug Sensitity in Cancer screening data, Wellcome Trust Sanger Institute”

Columns and labels:
Test in all cases: cells
Format in all cases: functional, cell-based, Homo sapiens
IST-MEL1 = conditions: Homo sapiens, IST-MEL1
Description: SANGER: Inhibition of human IST-MEL1 cell growth in a cell viability assay.

Mo = conditions: Homo sapiens, Mo
Description: SANGER: Inhibition of human Mo-T cell growth in a cell viability assay.

IST-MES1 = conditions: Homo sapiens, IST-MES1
Description: SANGER: Inhibition of human IST-MES1 cell growth in a cell viability assay.

MHH-NB-11 = conditions: Homo sapiens, MHH-NB-11
Description: SANGER: Inhibition of human MHH-NB-11 cell growth in a cell viability assay.

SW872 = conditions: Homo sapiens, SW872
Description: SANGER: Inhibition of human SW872 cell growth in a cell viability assay.

GB-1 = conditions: Homo sapiens, GB-1
Description: SANGER: Inhibition of human GB-1 cell growth in a cell viability assay.

NB6 = conditions: Homo sapiens, NB6
Description: SANGER: Inhibition of human NB6 cell growth in a cell viability assay.

TK-10 = conditions: Homo sapiens, TK-10
Description: SANGER: Inhibition of human TK10 cell growth in a cell viability assay.

SJSA-1 = conditions: Homo sapiens, SJSA-1
Description: SANGER: Inhibition of human SJSA-1 cell growth in a cell viability assay.

MZ2-MEL = conditions: Homo sapiens, MZ2-MEL
Description: SANGER: Inhibition of human MZ2-MEL cell growth in a cell viability assay.

DJM-1 = conditions: Homo sapiens, DJM-1
Description: SANGER: Inhibition of human DJM-1 cell growth in a cell viability assay.

U-266 = conditions: Homo sapiens, U-266
Description: SANGER: Inhibition of human U-266 cell growth in a cell viability assay.

BB49-HNC = conditions: Homo sapiens, BB49-HNC
Description: SANGER: Inhibition of human BB49-HNC cell growth in a cell viability assay.

LB2518-MEL = conditions: Homo sapiens, LB2518-MEL
Description: SANGER: Inhibition of human LB2518-MEL cell growth in a cell viability assay.

KG-1 = conditions: Homo sapiens, KG-1
Description: SANGER: Inhibition of human KG-1 cell growth in a cell viability assay.

L-363 = conditions: Homo sapiens, L-363
Description: SANGER: Inhibition of human L-363 cell growth in a cell viability assay.

A3-KAW = conditions: Homo sapiens, A3-KAW
Description: SANGER: Inhibition of human A3-KAW cell growth in a cell viability assay.

SF-539 = conditions: Homo sapiens, SF-539
Description: SANGER: Inhibition of human SF539 cell growth in a cell viability assay.

OMC-1 = conditions: Homo sapiens, OMC-1
Description: SANGER: Inhibition of human OMC-1 cell growth in a cell viability assay.

MPP-89 = conditions: Homo sapiens, MPP-89
Description: SANGER: Inhibition of human MPP-89 cell growth in a cell viability assay.

ES5 = conditions: Homo sapiens, ES5
Description: SANGER: Inhibition of human ES5 cell growth in a cell viability assay.

LB771-HNC = conditions: Homo sapiens, LB771-HNC
Description: SANGER: Inhibition of human LB771-HNC cell growth in a cell viability assay.

LU-134-A = conditions: Homo sapiens, LU-134-A
Description: SANGER: Inhibition of human LU-134-A cell growth in a cell viability assay.

LS-411N = conditions: Homo sapiens, LS-411N
LNCaP-Clone-FGC = conditions: Homo sapiens, LNCaP-Clone-FGC
Description: SANGER: Inhibition of human LNCaP-Clone-FGC cell growth in a cell viability assay.

KNS-42 = conditions: Homo sapiens, KNS-42
Description: SANGER: Inhibition of human KNS-42 cell growth in a cell viability assay.

BB65-RCC = conditions: Homo sapiens, BB65-RCC
Description: SANGER: Inhibition of human BB65-RCC cell growth in a cell viability assay.

TE-5 = conditions: Homo sapiens, TE-5
Description: SANGER: Inhibition of human TE-5 cell growth in a cell viability assay.

LOX IMVI = conditions: Homo sapiens, LOX IMVI
Description: SANGER: Inhibition of human LOXIMVI cell growth in a cell viability assay.

KY821 = conditions: Homo sapiens, KY821
Description: SANGER: Inhibition of human KY821 cell growth in a cell viability assay.

PSN1 = conditions: Homo sapiens, PSN1
Description: SANGER: Inhibition of human PSN1 cell growth in a cell viability assay.

RPMI-8866 = conditions: Homo sapiens, RPMI-8866
Description: SANGER: Inhibition of human RPMI-8866 cell growth in a cell viability assay.

EW-16 = conditions: Homo sapiens, EW-16
Description: SANGER: Inhibition of human EW-16 cell growth in a cell viability assay.

SK-N-FI = conditions: Homo sapiens, SK-N-FI
Description: SANGER: Inhibition of human SK-N-FI cell growth in a cell viability assay.

C8166 = conditions: Homo sapiens, C8166
Description: SANGER: Inhibition of human C8166 cell growth in a cell viability assay.

TE-9 = conditions: Homo sapiens, TE-9
Description: SANGER: Inhibition of human TE-9 cell growth in a cell viability assay.

COLO-824 = conditions: Homo sapiens, COLO-824
Description: SANGER: Inhibition of human COLO-824 cell growth in a cell viability assay.

EOL1 = conditions: Homo sapiens, EOL1
Description: SANGER: Inhibition of human EoL-1-cell cell growth in a cell viability assay.

OVCAR-4 = conditions: Homo sapiens, OVCAR-4
Description: SANGER: Inhibition of human OVCAR-4 cell growth in a cell viability assay.

ES7 = conditions: Homo sapiens, ES7
Description: SANGER: Inhibition of human ES7 cell growth in a cell viability assay.

KM-H2 = conditions: Homo sapiens, KM-H2
Description: SANGER: Inhibition of human KM-H2 cell growth in a cell viability assay.

NCI-H23 = conditions: Homo sapiens, NCI-H23
Description: SANGER: Inhibition of human NCI-H23 cell growth in a cell viability assay.

NCI-H82 = conditions: Homo sapiens, NCI-H82
Description: SANGER: Inhibition of human NCI-H82 cell growth in a cell viability assay.

LXF-289 cell line = conditions: Homo sapiens, LXF-289
Description: SANGER: Inhibition of human LXF-289 cell growth in a cell viability assay.

KNS-81-FD = conditions: Homo sapiens, KNS-81-FD
Description: SANGER: Inhibition of human KNS-81-FD cell growth in a cell viability assay.

NCI-H1838 = conditions: Homo sapiens, NCI-H1838
Description: SANGER: Inhibition of human NCI-H1838 cell growth in a cell viability assay.

K5 = conditions: Homo sapiens, K5
Description: SANGER: Inhibition of human K5 cell growth in a cell viability assay.

HOP-62 = conditions: Homo sapiens, HOP-62
Description: SANGER: Inhibition of human HOP-62 cell growth in a cell viability assay.

## Cn1cnc2c(F)c(Nc3ccc(Br)cc3Cl)c(C(=O)NOCCO)cc21 [SELUMETINIB]
IST-MEL1
  IC50: > 4 µM
Mo
  IC50: > 4 µM
IST-MES1
  IC50: > 4 µM
MHH-NB-11
  IC50: > 4 µM
SW872
  IC50: 1.27 µM
GB-1
  IC50: > 4 µM
NB6
  IC50: > 4 µM
TK-10
  IC50: > 4 µM
SJSA-1
  IC50: 3.78 µM
MZ2-MEL
  IC50: 0.394 µM
DJM-1
  IC50: > 4 µM
U-266
  IC50: 0.488 µM
BB49-HNC
  IC50: > 4 µM
LB2518-MEL
  IC50: 0.0938 µM
KG-1
  IC50: 0.895 µM
L-363
  IC50: > 4 µM
A3-KAW
  IC50: 3.91 µM
SF-539
  IC50: > 4 µM
OMC-1
  IC50: > 4 µM
MPP-89
  IC50: > 4 µM
ES5
  IC50: > 4 µM
LB771-HNC
  IC50: > 4 µM
LU-134-A
  IC50: > 4 µM
LS-411N
  IC50: > 4 µM
LNCaP-Clone-FGC
  IC50: > 4 µM
KNS-42
  IC50: > 4 µM
BB65-RCC
  IC50: 1.84 µM
TE-5
  IC50: > 4 µM
LOX IMVI
  IC50: 0.859 µM
KY821
  IC50: 0.107 µM
PSN1
  IC50: 0.366 µM
RPMI-8866
  IC50: > 4 µM
EW-16
  IC50: > 4 µM
SK-N-FI
  IC50: > 4 µM
C8166
  IC50: > 4 µM
TE-9
  IC50: > 4 µM
COLO-824
  IC50: > 4 µM
EOL1
  IC50: 0.145 µM
OVCAR-4
  IC50: > 4 µM
ES7
  IC50: > 4 µM
KM-H2
  IC50: > 4 µM
NCI-H23
  IC50: > 4 µM
NCI-H82
  IC50: > 4 µM
LXF-289 cell line
  IC50: > 4 µM
KNS-81-FD
  IC50: > 4 µM

## CC(C)c1ccccc1Cc1cc(C(=O)Nc2ccc(S(=O)(=O)c3ccccc3C(C)(C)C)cc2)c(O)c(O)c1O
IST-MEL1
  IC50: 0.228 µM
IST-MES1
  IC50: 0.214 µM
SW872
  IC50: 0.0589 µM
GB-1
  IC50: 0.0987 µM
NB6
  IC50: 2.49 µM
TK-10
  IC50: 0.462 µM
SJSA-1
  IC50: 0.327 µM
MZ2-MEL
  IC50: 0.212 µM
NCI-H1838
  IC50: 2.16 µM
DJM-1
  IC50: 0.52 µM
BB49-HNC
  IC50: 2.01 µM
LB2518-MEL
  IC50: 0.178 µM
SF-539
  IC50: 0.47 µM
OMC-1
  IC50: 0.565 µM
MPP-89
  IC50: 1.27 µM
ES5
  IC50: 0.884 µM
LB771-HNC
  IC50: 0.166 µM
LS-411N
  IC50: 1.24 µM
LNCaP-Clone-FGC
  IC50: 0.535 µM
KNS-42
  IC50: 2.54 µM
BB65-RCC
  IC50: 0.135 µM
TE-5
  IC50: 0.884 µM
LOX IMVI
  IC50: 0.271 µM
PSN1
  IC50: 0.167 µM
EW-16
  IC50: 0.185 µM
SK-N-FI
  IC50: 0.328 µM
K5
  IC50: 1.77 µM
TE-9
  IC50: 0.225 µM
COLO-824
  IC50: 0.691 µM
OVCAR-4
  IC50: 0.61 µM
ES7
  IC50: 0.27 µM
NCI-H23
  IC50: 0.348 µM
HOP-62
  IC50: 0.365 µM
LXF-289 cell line
  IC50: 0.0728 µM
KNS-81-FD
  IC50: 0.248 µM

## CC1(C)CNc2cc(NC(=O)c3cccnc3NCc3ccncc3)ccc21 [MOTESANIB]
IST-MEL1
  IC50: > 2 µM
Mo
  IC50: > 2 µM
IST-MES1
  IC50: > 2 µM
MHH-NB-11
  IC50: > 2 µM
SW872
  IC50: > 2 µM
GB-1
  IC50: > 2 µM
NB6
  IC50: > 2 µM
TK-10
  IC50: > 2 µM
SJSA-1
  IC50: > 2 µM
MZ2-MEL
  IC50: > 2 µM
NCI-H1838
  IC50: > 2 µM
DJM-1
  IC50: > 2 µM
U-266
  IC50: > 2 µM
BB49-HNC
  IC50: > 2 µM
LB2518-MEL
  IC50: > 2 µM
KG-1
  IC50: > 2 µM
L-363
  IC50: > 2 µM
A3-KAW
  IC50: > 2 µM
SF-539
  IC50: > 2 µM
OMC-1
  IC50: > 2 µM
MPP-89
  IC50: > 2 µM
ES5
  IC50: > 2 µM
LB771-HNC
  IC50: > 2 µM
LU-134-A
  IC50: > 2 µM
LS-411N
  IC50: > 2 µM
LNCaP-Clone-FGC
  IC50: > 2 µM
KNS-42
  IC50: > 2 µM
BB65-RCC
  IC50: > 2 µM
TE-5
  IC50: > 2 µM
LOX IMVI
  IC50: > 2 µM
KY821
  IC50: > 2 µM
PSN1
  IC50: > 2 µM
RPMI-8866
  IC50: > 2 µM
EW-16
  IC50: > 2 µM
SK-N-FI
  IC50: > 2 µM
C8166
  IC50: > 2 µM
K5
  IC50: > 2 µM
TE-9
  IC50: > 2 µM
COLO-824
  IC50: > 2 µM
EOL1
  IC50: < 0.00781 µM
OVCAR-4
  IC50: > 2 µM
ES7
  IC50: > 2 µM
KM-H2
  IC50: > 2 µM
NCI-H23
  IC50: > 2 µM
NCI-H82
  IC50: > 2 µM
LXF-289 cell line
  IC50: > 2 µM
KNS-81-FD
  IC50: > 2 µM
